Data set [1] relates to Mouse. The settings on record: in vivo; for Loss of Righting Reflex ED min.: ip.
The subject of data set [2] is locomotor activity of d-amphetamine. Put plainly: potentiation of locomotor activity of d-amphetamine. Format: in vivo. The settings on record: in words.
The test system of data set [3] is anti-cholinergic activity. Put plainly: anti-cholinergic activity. The settings on record: in words.
The nature of data set [4]: side-effects such as sedation, catalepsy and extrapyramidal dysfunction. Format: in vivo. The settings on record: in words.
Data set [5] relates to apomorphine induced stereotyped behaviour. The experiment in a line: apomorphine induced stereotyped behaviour. Particulars: rat; in words. Type of data set: in vivo.
The subject of data set [6] is muricidal behaviour. The experiment in a line: inhibition of instinctive muricidal (mouse killing) behaviour. Type of data set: in vivo, rat. Particulars: rats.
For data set [7], the system named is apomorphine-induced aggression. The experiment in a line: antagonism of apomorphine-induced aggression (antiaggressive activity). Particulars: for ED50: Rattus norvegicus.
For data set [8], the system named is Mouse. Put plainly: anticonvulsant activity, Maximal Electroshock Test (MES). Format: in vivo. The settings on record: for ED50: ip, Mouse, Maximal Electroshock Test. The text has this:
| ^(a) Maximal Electroshock Test (Woodbury and Davenport, Arch. Int. | Pharmacodyn. Ther., 92, 97-107 (1952).
(Protection in the maximal electroshock model is a classic sign of anticonvulsant action.)

Data set [9] has as its system anti-histamine activity. Put plainly: anti-histamine activity. Particulars: in words.
Data set [10] is described as follows: acute oral lethality (LD50) in rat. Particulars: in vivo, p.o.
Data set [11] deals with Rat. The settings on record: in vivo; for Muscle Tone Decrease ED min.: ip.
Data set [12] can be described thus: antagonism of apomorphine-induced aggression (antiaggressive activity). Particulars: rat, in vivo, po.
Data set [13] in a line: acute lethality (LD50) in male mice. Particulars: mouse, in vivo.
[14] abbreviates: po, read-out: Antiaggressive ED50.

Molecules are shown by their SMILES. Counter-ions that a name gives are not always drawn. Like-named read-outs stand apart in the source and are kept apart here.

With `C[C@@H]1CN(CCCn2c3ccccc3c3ccccc32)C[C@H](C)N1` [Carbazole, 9-[3-(3,5-cis-dimethylpiperazino)propyl]carbazole], in data set [1], the “minimum dose for loss of righting reflex relative to compound B” value is recorded as “about three times that of compound B”. The “potentiation of the locomotor activity of d-amphetamine” value in data set [2] was “potentiates the locomotor activity of d-amphetamine”. Further, the “anti-cholinergic activity relative to phenothiazines” value in [3] is “significantly less”. In [4], the “undesirable side-effects such as sedation, catalepsy and extrapyramidal dysfunction” value is on record as “substantially free from undesirable side-effects”. Besides, the “antagonism of apomorphine induced stereotyped behaviour” value in data set [5] is reported as “failure to antagonise apomorphine induced stereotyped behaviour”. Moreover, the “suppression of instinctive muricidal (mouse killing) behaviour” value in [6] (in words) is reported as “suppress the instinctive muricidal (i.e. mouse killing) behaviour”. For the same compound, the “potency of anti-aggressive and anti-psychotic properties relative to non-methylated, 4-methyl, 3,4,5-trimethyl and 3,5-trans-dimethyl compounds” value in [7] (comparison in words) is reported as “more potent than either the corresponding non-methylated compound or any of the analogous 4-methyl, 3,4,5-trimethyl or 3,5-trans-dimethyl compounds”. Moreover, the “antagonism of apomorphine-induced aggression” value in data set [7] (rat, in words) was “antagonised apomorphine-induced aggression”. Moreover, the “anticonvulsant activity of the "Carbazole" relative to cpd. B” value in data set [8] (in words) is listed as “less than half the anticonvulsant activity of cpd. B”. Moreover, the “anti-histamine activity relative to phenothiazines” value in data set [9] is “significantly less”.

For the compound `C[C@@H]1CN(CCCn2c3ccccc3c3ccccc32)C[C@H](C)N1` [Example 1, 9-[3-(3,5-cis-Dimethylpiperazino)propyl]carbazole dihydrochloride hemihydrate], the LD50 in data set [10] was 957 mg/kg; in data set [13] (intravenous, read-out: LD50 intravenous), 31 mg/kg; in data set [13] (oral, read-out: LD50 oral), 977 mg/kg. Also, the “Loss of Righting Reflex ED min.” value in [1] is reported as 160 mg/kg. For the same compound, the “Muscle Tone Decrease ED min.” value in data set [11] is given as 125 mg/kg. In addition, the ED50 was determined as 15 mg/kg in [6] (Rattus norvegicus, ip, intraperitoneal, read-out: ED50 (anti-muricidal)); 12.5 mg/kg in [7] (ip, read-out: ED50 (anti-aggressive)); 48 mg/kg in [7] (setting [14]); 43 mg/kg in [8]. The selectivity ratio in data set [12] was found to be 20.

Take `O=C1NC(=O)C(c2ccccc2)(c2ccccc2)N1` [Phenytoin]: the “Loss of Righting Reflex ED min.” value in data set [1] is given as more than 100 mg/kg. The same compound returned an ED50 in data set [8] of 8.5 mg/kg. In addition, the “anticonvulsant activity relative to the "Carbazole" (cpd. A)” value in data set [8] (phenytoin vs cpd. A) is listed as 5 times. Moreover, in data set [8] (phenytoin vs cpd. B), the “anticonvulsant activity relative to cpd. B” value is on record as approximately 2.5 times.

Compound `CN1CCN(CCCn2c3ccccc3c3ccccc32)CC1` [compound B, 9-[3-(4-methylpiperazino)propyl]carbazole, reference compound] had an LD50 in [10] of 830 mg/kg. In addition, the “Loss of Righting Reflex ED min.” value in data set [1] stood at 50 mg/kg. Besides, the “dose at which muscle tone decrease is observed relative to the "Carbazole"” value in data set [11] was “much lower dose”. In addition, the “Muscle Tone Decrease ED min.” value in data set [11] is given as 50 mg/kg. In data set [12], the selectivity ratio was determined as 11. Moreover, the ED50 in data set [7] (setting [14]) was determined as 75 mg/kg; in data set [8], 20 mg/kg. Besides, the “level of anticonvulsant activity” value in [8] (assessment in words) is “marginal”.

In general, LD50 refers to the dose at which mortality reaches 50%. The term ED50 denotes the dose at which the effect has come halfway, by size or by number of responders.

The values above are taken from patent US4379160A, “Carbazole compounds and medicinal use thereof” (priority 1978, dated 1983).
